Test results from publication PMC7915026, “Sulfaguanidine Hybrid with Some New Pyridine-2-One Derivatives: Design, Synthesis, and Antimicrobial Activity against Multidrug-Resistant Bacteria as Dual DNA Gyrase and DHFR Inhibitors” (Antibiotics, 2021).
Values after ≈ are worked out from the molar mass of the structure shown.

Experiments:
spleen and thymus = assay: In vivo immunomodulation: immune organ weight and indexes; parameters: Spleen index: unit not given here; details: mice
Description: Both the spleen and thymus have important antibacterial and fungal immune organ responses, and any change in weight, and indexes can reflect the level of immune regulation. Additionally, the relative spleen and thymus indexes are important indices for nonspecific immunity and potential immunomodulatory compounds that increase the spleen and thymus weight. This increase is due to immune cells’ stimulation in the spleen and thymus. […]

[1] = system: Salmonella typhi (S. typhi ATCC 6539); assay: microbe, parasite or virus in culture; format: cell-based; details: Salmonella enterica, Salmonella typhi
P. aeruginosa ATCC 27853 [2] = assay: MIC and MBC determination; format: cell-based; details: Pseudomonas aeruginosa, ATCC27853, P. aeruginosa
E. coli ATCC BAA-196 [3] = assay: Inhibition zone against multidrug-resistant bacteria; format: cell-based; details: MDRB E. coli ATCC BAA-196
Description: (§1) Norfloxacin was used as a positive control for the multidrug resistance study.
(§2) The antimicrobial activity performed at the bacteriology laboratory, Botany and Microbiology Department, Faculty of Science, Al-Azhar University, Cairo, Egypt. The inhibition zone (IZ) of the tested derivatives expressed as the diameter (mm) according to the agar plate diffusion method.

S. aureus ATCC 33591 [4] = assay: as above; format: cell-based; details: MDRB S. aureus ATCC 33591
Description: as §1, §2

S. aureus ATCC 43300 [5] = assay: as above; format: cell-based; details: MDRB S. aureus ATCC 43300
Description: as §1, §2

[6] = system: P. aeruginosa ATCC BAA-2111; assay: as above; format: cell-based; details: MDRB P. aeruginosa ATCC BAA-2111
Description: as §1, §2

C. albicans (ATCC 10231) [7] = assay: Inhibition zone, paper disk/agar diffusion; format: cell-based; details: Na = no activity
Description: as §2

B. subtilis ATCC 6633 [8] = assay: Inhibition zone, paper disk/agar diffusion; format: cell-based; details: B. subtilis; Na = no activity
Description: as §2

S. aureus ATCC 29213 [9] = assay: Inhibition zone, paper disk/agar diffusion; format: cell-based; details: S. aureus; Na = no activity
Description: as §2

E. faecalis ATCC 29212 [10] = assay: Inhibition zone, paper disk/agar diffusion; format: cell-based; details: E. faecalis; Na = no activity
Description: as §2

S. typhi ATCC 6539 = assay: Inhibition zone, paper disk/agar diffusion; format: cell-based; details: S. typhi; Na = no activity
Description: as §2

E. coli ATCC 25922 [11] = assay: Inhibition zone, paper disk/agar diffusion; format: cell-based; details: E. coli; Na = no activity
Description: as §2

P. aeruginosa ATCC 27853 [12] = assay: Inhibition zone, paper disk/agar diffusion; format: cell-based; details: P. aeruginosa; Na = no activity
Description: as §2

[13] = system: F. oxysporum (RCMB 008002); assay: Inhibition zone, paper disk/agar diffusion; format: cell-based; details: Na = no activity
Description: as §2

B. subtilis ATCC 6633 [14] = assay: MIC and MBC determination; format: cell-based; details: Bacillus subtilis, ATCC6633, B. subtilis
[15] = system: CD4+ and CD8+ T lymphocytes; assay: In vivo T lymphocyte subsets from peripheral blood, flow cytometry; details: mice
Description: Activation of immune cells as CD4^+ and CD8^+ T cells is one possible mechanism of a drug’s immune stimulus activity. An increase in these cells is thought to be a good indicator of an active immune response to infections. So, our work extended to study the effect of the most promising derivatives (2d, 8, and 11) on T lymphocyte subsets (CD4^+ and CD8^+) from peripheral blood, and determined the relative level in model mice that analyzed by flow cytometry after the period of treating.
In vitro intracellular killing activities for the most promising six derivatives 2a, 2b, 2d, 3a, 8, and 11 were performed according to reported methods.

E. coli ATCC BAA-196 [16] = assay: MIC and MBC against multidrug-resistant strains; format: cell-based; details: Escherichia coli, ATCCBAA196, E. coli ATCC BAA-196
Description: as §1
(§3) The experiment was repeating for three-times.

S. aureus ATCC 33591 [17] = assay: MIC and MBC against multidrug-resistant strains; format: cell-based; details: Staphylococcus aureus, ATCC33591, S. aureus ATCC 33591
Description: as §1, §3

S. aureus ATCC 43300 [18] = assay: MIC and MBC against multidrug-resistant strains; format: cell-based; details: Staphylococcus aureus, ATCC43300, S. aureus ATCC 43300
Description: as §1, §3

[19] = system: P. aeruginosa ATCC BAA-2111; assay: MIC and MBC against multidrug-resistant strains; format: cell-based; details: Pseudomonas aeruginosa, ATCCBAA2111, P. aeruginosa ATCC BAA-2111
Description: as §1, §3

E. coli ATCC 25922 [20] = assay: MIC and MBC determination; format: cell-based; details: Escherichia coli, ATCC25922, E. coli
E. faecalis ATCC 29212 [21] = assay: MIC and MBC determination; format: cell-based; details: Enterococcus faecalis, ATCC29212, E. faecalis
C. albicans (ATCC 10231) [22] = assay: MIC and MFC determination; format: cell-based
S. aureus DNA gyrase = S. aureus DNA gyrase (Staphylococcus aureus, UniProt P0A0K8+P20831); assay: In vitro DNA gyrase supercoiling enzymatic assay; format: biochemical
Chain of S. aureus DNA gyrase (P20831 whole entry): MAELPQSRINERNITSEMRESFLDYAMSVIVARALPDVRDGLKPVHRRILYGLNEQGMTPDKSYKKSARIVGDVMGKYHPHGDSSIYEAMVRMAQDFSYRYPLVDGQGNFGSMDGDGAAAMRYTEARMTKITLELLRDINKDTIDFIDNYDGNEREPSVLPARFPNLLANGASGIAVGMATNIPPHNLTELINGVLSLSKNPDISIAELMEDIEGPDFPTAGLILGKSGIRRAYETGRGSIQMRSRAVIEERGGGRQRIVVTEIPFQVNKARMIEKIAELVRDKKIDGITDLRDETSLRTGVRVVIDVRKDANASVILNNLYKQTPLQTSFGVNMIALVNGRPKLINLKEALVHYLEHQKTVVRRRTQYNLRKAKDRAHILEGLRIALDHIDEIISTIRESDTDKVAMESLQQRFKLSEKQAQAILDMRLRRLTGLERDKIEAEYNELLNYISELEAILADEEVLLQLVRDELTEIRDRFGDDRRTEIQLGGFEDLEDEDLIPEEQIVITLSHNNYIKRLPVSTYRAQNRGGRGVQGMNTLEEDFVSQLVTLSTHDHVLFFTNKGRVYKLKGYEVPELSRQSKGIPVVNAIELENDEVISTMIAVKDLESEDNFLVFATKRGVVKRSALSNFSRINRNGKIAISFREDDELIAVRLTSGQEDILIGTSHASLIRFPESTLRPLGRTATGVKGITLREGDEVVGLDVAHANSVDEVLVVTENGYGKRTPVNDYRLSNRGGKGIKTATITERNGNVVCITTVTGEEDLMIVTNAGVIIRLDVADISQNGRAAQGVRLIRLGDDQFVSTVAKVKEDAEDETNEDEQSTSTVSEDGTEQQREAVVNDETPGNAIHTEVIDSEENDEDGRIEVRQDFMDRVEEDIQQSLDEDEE
Chain of S. aureus DNA gyrase (P0A0K8 whole entry): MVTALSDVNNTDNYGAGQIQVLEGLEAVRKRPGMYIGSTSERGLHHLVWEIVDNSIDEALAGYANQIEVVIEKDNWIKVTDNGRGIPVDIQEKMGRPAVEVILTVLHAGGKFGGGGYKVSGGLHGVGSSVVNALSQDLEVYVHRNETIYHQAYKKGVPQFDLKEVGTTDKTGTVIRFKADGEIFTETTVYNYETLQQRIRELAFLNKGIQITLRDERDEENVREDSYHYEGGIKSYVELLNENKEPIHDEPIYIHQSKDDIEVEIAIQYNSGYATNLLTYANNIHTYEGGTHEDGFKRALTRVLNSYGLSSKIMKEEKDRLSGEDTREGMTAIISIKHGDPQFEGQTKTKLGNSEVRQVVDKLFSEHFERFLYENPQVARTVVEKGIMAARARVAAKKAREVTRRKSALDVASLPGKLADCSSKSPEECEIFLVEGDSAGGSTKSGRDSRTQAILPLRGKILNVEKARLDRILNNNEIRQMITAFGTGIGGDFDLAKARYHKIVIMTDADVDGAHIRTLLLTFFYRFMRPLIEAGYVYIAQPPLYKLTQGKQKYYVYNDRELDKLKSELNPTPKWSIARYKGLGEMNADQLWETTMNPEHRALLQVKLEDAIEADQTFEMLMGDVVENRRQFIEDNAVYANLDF

[23] = system: F. oxysporum (RCMB 008002); assay: MIC and MFC determination; format: cell-based
S. aureus ATCC 29213 [24] = assay: MIC and MBC determination; format: cell-based; details: Staphylococcus aureus, ATCC29213, S. aureus

In the case of `N=C(N)NS(=O)(=O)c1ccc(NC(=O)c2cc3ccccc3oc2=N)cc1` [Compound 11, N-(4-(N-Carbamimidoylsulfamoyl)phenyl)-2-imino-2H-chromene-3-carboxamide], the Spleen index (spleen and thymus) is reported as 0.008 ± 0.00, the Spleen weight (spleen and thymus) is reported as 190 ± 0.074 mg and the Thymus index (spleen and thymus) is reported as 0.455 ± 0.07 mg/g. It also gave a Thymus weight (spleen and thymus) of 13.67 ± 0.53 mg, an MBC ([1]; read-out: MBC) of 94.7 ± 0.79 µM (≈ 36.5 µg/mL) and an MIC ([1]; read-out: MIC) of 48 ± 0.85 µM (≈ 18.5 µg/mL). For the same compound, the MBC (P. aeruginosa ATCC 27853 [2]; read-out: MBC) was 144 ± 1.47 µM (≈ 55.5 µg/mL), the MIC (P. aeruginosa ATCC 27853 [2]; read-out: MIC) was 72 ± 0.96 µM (≈ 27.8 µg/mL) and the “Mean Diameter of Inhibition Zone” value (E. coli ATCC BAA-196 [3]) was 19 ± 0.88 mm. For the same compound, the “Mean Diameter of Inhibition Zone” value (S. aureus ATCC 33591 [4]) was 22 ± 0.65 mm, the “Mean Diameter of Inhibition Zone” value (S. aureus ATCC 43300 [5]) was 17 ± 0.3 mm and the “Mean Diameter of Inhibition Zone” value [6] was 23 ± 0.25 mm. The “Mean Diameter of the Inhibition Zone” value (C. albicans (ATCC 10231) [7]) was 22 ± 0.21 mm, the “Mean Diameter of the Inhibition Zone” value (B. subtilis ATCC 6633 [8]) was 28 ± 0.11 mm and the “Mean Diameter of the Inhibition Zone” value (S. aureus ATCC 29213 [9]) was 24 ± 0.29 mm. For the same compound, the “Mean Diameter of the Inhibition Zone” value (E. faecalis ATCC 29212 [10]) was 29± 0.54 mm, the “Mean Diameter of the Inhibition Zone” value (S. typhi ATCC 6539) was 18 ± 0.36 mm and the “Mean Diameter of the Inhibition Zone” value (E. coli ATCC 25922 [11]) was 25 ± 0.43 mm. The “Mean Diameter of the Inhibition Zone” value (P. aeruginosa ATCC 27853 [12]) was 24 ± 0.13 mm, the “Mean Diameter of the Inhibition Zone” value [13] was 18 ± 0.45 mm and the MBC (B. subtilis ATCC 6633 [14]; read-out: MBC) was 17.2 ± 0.54 µM (≈ 6.63 µg/mL). The MIC (B. subtilis ATCC 6633 [14]; read-out: MIC) was 10.1 ± 0.68 µM (≈ 3.9 µg/mL), the “T cells CD4+” value [15] was 75.20 ± 0.97% and the “T cells CD8+” value [15] was 24.05 ± 0.32%. It also gave an MBC (E. coli ATCC BAA-196 [16]; read-out: MBC) of 48 ± 0.81 µM (≈ 18.5 µg/mL), an MIC (E. coli ATCC BAA-196 [16]; read-out: MIC) of 24 ± 0.49 µM (≈ 9.25 µg/mL) and an MBC (S. aureus ATCC 33591 [17]; read-out: MBC) of 19.2 ± 0.65 µM (≈ 7.41 µg/mL). The MIC (S. aureus ATCC 33591 [17]; read-out: MIC) was 10.1 ± 0.29 µM (≈ 3.9 µg/mL), the MBC (S. aureus ATCC 43300 [18]; read-out: MBC) was 81.1 ± 0.85 µM (≈ 31.2 µg/mL) and the MIC (S. aureus ATCC 43300 [18]; read-out: MIC) was 40.52 ± 0.36 µM (≈ 15.6 µg/mL). It also gave an MBC ([19]; read-out: MBC) of 81.1 ± 0.86 µM (≈ 31.2 µg/mL), an MIC ([19]; read-out: MIC) of 40.5 ± 0.74 µM (≈ 15.6 µg/mL) and an MBC (E. coli ATCC 25922 [20]; read-out: MBC) of 40.5 ± 0.75 µM (≈ 15.6 µg/mL). For the same compound, the MIC (E. coli ATCC 25922 [20]; read-out: MIC) was 20.3 ± 0.36 µM (≈ 7.81 µg/mL), the MBC (E. faecalis ATCC 29212 [21]; read-out: MBC) was 81.1 ± 0.98 µM (≈ 31.2 µg/mL) and the MIC (E. faecalis ATCC 29212 [21]; read-out: MIC) was 40.5 ± 0.74 µM (≈ 15.6 µg/mL). For the same compound, the MFC/MIC (C. albicans (ATCC 10231) [22]) was less than 2, the MFC (C. albicans (ATCC 10231) [22]; Candida albicans, ATCC10231, read-out: MFC) was 45.6 ± 0.47 µM (≈ 17.6 µg/mL) and the MIC (C. albicans (ATCC 10231) [22]; Candida albicans, ATCC10231, read-out: MIC) was 24 ± 0.41 µM (≈ 9.25 µg/mL). The IC50 (S. aureus DNA gyrase) was 39.4 ± 1.15 µM, the MFC/MIC [23] was less than 2 and the MFC ([23]; Fusarium oxysporum, RCMB008002, read-out: MFC) was 145.9 ± 1.25 µM (≈ 56.2 µg/mL). For the same compound, the MIC ([23]; Fusarium oxysporum, RCMB008002, read-out: MIC) was 81.08 ± 0.54 µM (≈ 31.2 µg/mL), the MBC (S. aureus ATCC 29213 [24]; read-out: MBC) was 40.5 ± 1.02 µM (≈ 15.6 µg/mL) and the MIC (S. aureus ATCC 29213 [24]; read-out: MIC) was 20.3 ± 0.67 µM (≈ 7.81 µg/mL).
